For one series, the system named is HIV-1 D isolate. Briefly: HIV-1 D isolate viral growth, different research group, compared to AZT. Type of series: cell-based. Conditions: HIV-1 D isolate (second-named isolate).
The test system of series [1] is HIV-1 IIIB laboratory strain. Briefly: HIV-1 IIIB viral growth, different research group, compared to AZT. Conditions: HIV-1 IIIB (first-named isolate). Type of series: cell-based.
Another series concerns Newcastle disease. It counts as in vivo, Ross 308 broiler chickens. Conditions: Baytril 10 mg/kg/day for 3 days in first week, one day at 21 days of age; day 28 and 42.
The nature of series [2]: Study 1511: Subchronic oral toxicity in rats (90 day study). The following applies: rat, in vivo.
For series [3] the following is noted: rat, in vivo.
For series [4] the following is noted: dog, in vivo. As for the experimental part:
All animals were euthanased after the 90-day period and a comprehensive post mortem examination, as well as a histopathological evaluation of an extensive list of organs, was performed.

Like-named read-outs stand apart in the source and are kept apart here.

Turning to `Cc1cn([C@H]2C[C@H](N=[N+]=[N-])[C@@H](CO)O2)c(=O)[nH]c1=O` [AZT], the “AZT concentration giving the same level of viral growth as oxihumate 25 μg/ml” value with HIV-1 D isolate was found to be 12.5 µM; in series [1], 0.3 µM.
Consider `CCN1CCN(c2cc3c(cc2F)c(=O)c(C(=O)O)cn3C2CC2)CC1` [Baytril], for which, in the series with Newcastle disease, the “titers against Newcastle disease” value was “two to four fold increase”.
Potassium oxihumate: the “end body mass of male treated animals” value in series [2] was “statistically significant decrease”. In addition, in series [2] (po), the circulating lymphocytes entry was “decline”; the clinical signs entry is reported as “No abnormal clinical signs were observed”; the “pathology and organ masses compared to the control animals” value is listed as “no notable differences”; the serum globulins result is listed as “consistent increase”. In addition, in series [2] (po), the serum inorganic phosphate result was “decrease”; the “size and haemoglobinization of the red blood cells” value is reported as “drug-related increase”. The “blood chemistry and body masses” value in series [2] (po, 1000 mg/kg/day) was “Slight alterations in blood chemistry and slight decreases in body masses”. In series [3], the acid-base status entry is “very low grade acid-base disturbance” and the chemical pathology parameters result is given as “altered some of the chemical pathology parameters”. Besides, in series [3] (1000 mg/kg/day), the overall toxicity assessment entry is on record as “does not appear to have any serious deleterious effect”; the “pathology, body masses and organ masses compared to the control animals” value is recorded as “no differences”. Moreover, in series [4], the overall toxicity assessment result was “low toxicity”; the “post mortem and histopathological evaluation” value was “did not induce any measurable pathology at the macroscopic and microscopic level”. Also, in series [4] (1200 mg/kg/day), the “clinical signs of toxicity” value is “did not induce marked clinical signs of toxicity”. In addition, the clinical pathological parameters result in series [4] (po) is “some, but usually small, effects”. In series [4] (po, 1200 mg/kg/day), the “blood chemistry and body masses” value is “Slight alterations in blood chemistry and slight decrease in body masses”.
